Our source for the EC50 values is ChEMBL document CHEMBL3102798, “Stapled Vasoactive Intestinal Peptide (VIP) Derivatives Improve VPAC2 Agonism and Glucose-Dependent Insulin Secretion” (ACS Med Chem Lett, 2013).

SMILES strings stand for the structures. Numbered stars: 1 amine (or outer) side, 2 acyl side, 3 side chain; on linkers, the order of the positions; unused ones are H or OH. Bridge positions count the residues as written; N and C are the ends. Square brackets hold non-standard residues; d marks the D form. Peptide text beside a SMILES is read from it. X1 = C[C@@](CCCCC=[*:3])(N[*:1])C(=O)[*:2]; S5 = C=CCCC[C@](C)(N)C(=O)O

A word on the EC50: it is the concentration giving half of the maximal effect.

This test deals with T1, Vasoactive intestinal polypeptide receptor 2 (Homo sapiens, UniProt P41587).
T1 sequence (P41587 whole entry): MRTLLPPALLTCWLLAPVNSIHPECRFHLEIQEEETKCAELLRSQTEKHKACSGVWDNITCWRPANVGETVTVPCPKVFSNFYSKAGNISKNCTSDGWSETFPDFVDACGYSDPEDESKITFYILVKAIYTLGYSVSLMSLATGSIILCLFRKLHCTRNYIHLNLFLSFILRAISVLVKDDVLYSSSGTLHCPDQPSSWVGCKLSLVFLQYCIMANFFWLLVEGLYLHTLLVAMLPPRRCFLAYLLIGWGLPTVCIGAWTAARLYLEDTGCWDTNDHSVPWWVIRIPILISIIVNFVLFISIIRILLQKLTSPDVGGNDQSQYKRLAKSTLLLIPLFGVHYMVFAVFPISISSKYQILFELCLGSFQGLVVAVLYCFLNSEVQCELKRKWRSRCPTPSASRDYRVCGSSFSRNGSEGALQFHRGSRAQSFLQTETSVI
In words: Agonist activity at human VPAC2 expressed in CHO Flp-in cells assessed as accumulation of cAMP after 30 mins by TR-FRET assay. The class given is functional, cell-based. (TR-FRET usually uses a lanthanide donor and a delayed reading to cut background.)
On to `CC[C@H](C)[C@H](NC(=O)[C@H](CO)NC(=O)[C@H](CC(N)=O)NC(=O)[C@H](CC(C)C)NC(=O)[C@H](Cc1ccc(O)cc1)NC(=O)[C@]1(C)CCCC/C=C\CCCC[C@](C)(NC(=O)[C@H](CCC(N)=O)NC(=O)[C@H](CCCCN)NC(=O)[C@H](CCCNC(=N)N)NC(=O)[C@H](CC(C)C)NC(=O)[C@H](CCCNC(=N)N)NC(=O)[C@@H](NC(=O)[C@H](Cc2ccc(O)cc2)NC(=O)[C@H](CC(N)=O)NC(=O)[C@H](CC(=O)O)NC(=O)[C@@H](NC(=O)[C@H](Cc2ccccc2)NC(=O)[C@@H](NC(=O)[C@H](C)NC(=O)[C@H](CC(=O)O)NC(=O)[C@H](CO)NC(=O)[C@@H](N)Cc2cnc[nH]2)C(C)C)[C@@H](C)O)[C@@H](C)O)C(=O)N[C@@H](C)C(=O)N[C@@H](C(C)C)C(=O)N[C@@H](CCCCN)C(=O)N1)C(=O)N[C@@H](CC(C)C)C(=O)N[C@@H](CC(N)=O)C(=O)NCC(=O)N[C@@H](CCCCN)C(=O)O` (H-HSDAVFTDNYTRLRKQ[X1]AVK[X1]YLNSILNGK-OH; staple (Z) 17-21), for which the EC50 was 0.33 nM.

In the case of `C=CCCC[C@](C)(NC(=O)[C@H](CC(C)C)NC(=O)[C@@H](NC(=O)[C@H](CO)NC(=O)[C@](C)(CCCC=C)NC(=O)[C@H](CC(C)C)NC(=O)[C@H](Cc1ccc(O)cc1)NC(=O)[C@H](CCCCN)NC(=O)[C@H](CCCCN)NC(=O)[C@@H](NC(=O)[C@H](C)NC(=O)[C@@H](NC(=O)[C@H](CCC(N)=O)NC(=O)[C@H](CCCCN)NC(=O)[C@H](CCCNC(=N)N)NC(=O)[C@H](CC(C)C)NC(=O)[C@H](CCCNC(=N)N)NC(=O)[C@@H](NC(=O)[C@H](Cc1ccc(O)cc1)NC(=O)[C@H](CC(N)=O)NC(=O)[C@H](CC(=O)O)NC(=O)[C@@H](NC(=O)[C@H](Cc1ccccc1)NC(=O)[C@@H](NC(=O)[C@H](C)NC(=O)[C@H](CC(=O)O)NC(=O)[C@H](CO)NC(=O)[C@@H](N)Cc1cnc[nH]1)C(C)C)[C@@H](C)O)[C@@H](C)O)[C@@H](C)CC)C(C)C)[C@@H](C)CC)C(=O)NCC(=O)N[C@@H](CCCCN)C(=O)O` (H-HSDAVFTDNYTRLRKQIAVKKYL[S5]SIL[S5]GK-OH), the EC50 is 0.21 nM. For the compound `C=CCCC[C@](C)(NC(=O)[C@H](CCC(N)=O)NC(=O)[C@H](CCCCN)NC(=O)[C@H](CCCN=C(N)N)NC(=O)[C@H](CC(C)C)NC(=O)[C@H](CCCN=C(N)N)NC(=O)[C@@H](NC(=O)[C@H](Cc1ccc(O)cc1)NC(=O)[C@H](CC(N)=O)NC(=O)[C@H](CC(=O)O)NC(=O)[C@@H](NC(=O)[C@H](Cc1ccccc1)NC(=O)[C@@H](NC(=O)[C@H](C)NC(=O)[C@H](CC(=O)O)NC(=O)[C@H](CO)NC(=O)[C@@H](N)Cc1cnc[nH]1)C(C)C)[C@@H](C)O)[C@@H](C)O)C(=O)N[C@@H](C)C(=O)N[C@H](C(=O)N[C@@H](CCCCN)C(=O)N[C@@](C)(CCCC=C)C(=O)N[C@@H](Cc1ccc(O)cc1)C(=O)N[C@@H](CC(C)C)C(=O)N[C@@H](CC(N)=O)C(=O)N[C@@H](CO)C(=O)N[C@H](C(=O)N[C@@H](CC(C)C)C(=O)N[C@@H](CC(N)=O)C(=O)NCC(=O)N[C@@H](CCCCN)C(=O)O)[C@@H](C)CC)C(C)C` (H-HSDAVFTDNYTRLRKQ[S5]AVK[S5]YLNSILNGK-OH), the 50% effective concentration (EC50) was found to be 1.49 nM. To `CC[C@H](C)[C@H](NC(=O)[C@H](CO)NC(=O)[C@H](CC(N)=O)NC(=O)[C@H](CC(C)C)NC(=O)[C@H](Cc1ccc(O)cc1)NC(=O)[C@H](CCCCN)NC(=O)[C@H](CCCCN)NC(=O)[C@@H](NC(=O)[C@H](C)NC(=O)[C@@H]1CCCCNC(=O)CC[C@H](NC(=O)[C@H](CCCN=C(N)N)NC(=O)[C@@H](NC(=O)[C@H](Cc2ccc(O)cc2)NC(=O)[C@H](CC(N)=O)NC(=O)[C@H](CC(=O)O)NC(=O)[C@@H](NC(=O)[C@H](Cc2ccccc2)NC(=O)[C@@H](NC(=O)[C@H](C)NC(=O)[C@H](CC(=O)O)NC(=O)[C@H](CO)NC(=O)[C@@H](N)Cc2cnc[nH]2)C(C)C)[C@@H](C)O)[C@@H](C)O)C(=O)N[C@@H](CCCN=C(N)N)C(=O)N[C@@H](CCCCN)C(=O)N[C@@H](CCC(N)=O)C(=O)N1)C(C)C)C(=O)N[C@@H](CC(C)C)C(=O)N[C@@H](CC(N)=O)C(=O)NCC(=O)N[C@@H](CCCCN)C(=O)O` (H-HSDAVFTDNYTRERKQKAVKKYLNSILNGK-OH; lactam 13-17) belongs 1.16 nM.
